Source: patent EP4134671A1, “METHYLENE QUINUCLIDINONE COMPANION DIAGNOSTICS” (Deutsches Krebsforschungszentrum Stiftung des öffentlichen …, priority 2021, dated 2023)

Columns and labels:
Zebrafish embryo = Zebrafish embryo drug toxicity assay; format: in vivo; details: embryos 48 hpf, 34°C, imaged at 72 hpf and 120 hpf; APR-246 range 10-200 µM, Vorinostat range 2.5-100 µM
Description: The toxicity of the compounds was assessed before performing in vivo experiments and a Maximum Tolerated Dose (MTD) was determined. Embryos (48 hpf) were transferred to 48-well uncoated plates (Corning) containing different concentrations of the compounds and a solvent control. The stock solution of the compounds was further dissolved in E3 buffer supplemented with 0.2mM 1-phenyl-2- thiourea (PTU, Sigma) in order to reach the desired concentrations. Three embryos were tested per concentration or solvent control. Embryos were kept at 34°C during the experiment and were imaged at 72 hpf and 120 hpf using a stereo microscope (Leica). The embryos were assessed for signs of toxicity, like death, morphology changes (curvature of body, edema) and behavioral changes. APR-246 concentration range tested: 10-200 µM, MTD: 50µM; solvent control: DMSO (0.2% and 0.5%); Vorinostat concentration range tested: 2.5-100 µM, no toxicity detected (MTD: 100µM); solvent control: DMSO (0.1%).

[1] = Clinical plasma pharmacokinetics (background); format: in vivo; details: estimated from Cmax and half-life
[2] = system: p53 target genes CDKN1A, PUMA and GADD45A; experiment: Real-time PCR of p53 pathway activation in IMR-32; format: cell-based; details: IMR-32 (TP53-wt), 24 h
Description: (§1) Real-time PCR was performed as described previously (Fischer et al., J Mol Diagn 2005, 7, 89-96; Witt et al., Blood 2003, 101, 2001-2007). The following primers were purchased from ThermoFisher Scientific: CDKN1A (p21^WAF1/^CIP1, forward: 5'-TGGAGACTCTCAGGGTCGAAA-3'(SEQ ID NO:1), reverse: 5'-GGCGTTTGGAGTGGTAGAAATC-3'(SEQ ID NO.2)), HPRT (forward: 5'-TGACACTGGCAAAACAATGCA-3'(SEQ ID NO:3), reverse: 5'-GGTCCTTTTCACCAGCAAGCT-3'(SEQ ID NO:4)), SDHA (forward: 5'-TGGGAACAAGAGGGCATCTG-3'(SEQ ID NO:5), reverse: 5'-CCACCACTGCATCAAATTCATG-3'(SEQ ID NO:6)), and PUMA (forward: 5'-CCTGGAGGGTCCTGTACAATCT-3'(SEQ ID NO:7), reverse: 5'-GCACCTAATTGGGCTCCATCT-3'(SEQ ID NO:8)). The primer for GADD45A was purchased from Qiagen, Hilden, Germany (QT00014084). The delta-delta-Ct method was used to calculate the relative expression, and normalization was performed to neuroblastoma specific housekeeping genes SDHA and HPRT (Fischer et al., J Mol Diagn 2005, 7, 89-96).

[3] = system: p53 target gene expression; experiment: Real-time PCR of p53 pathway activation in SK-N-BE(2)-C; format: cell-based; details: SK-N-BE(2)-C (C135F), 24 h
Description: as §1

[4] = system: p53 target gene expression (CDKN1A and GADD45A); experiment: Real-time PCR of p53 pathway activation in SJ-GBM2; format: cell-based; details: APR-246 treatment
Description: as §1

[5] = system: p53 target gene expression (CDKN1A and GADD45A); experiment: Real-time PCR of p53 pathway activation in SF188; format: cell-based; details: APR-246 treatment
Description: as §1

IMR-32 cells = experiment: Flow cytometry: ROS (DCFDA) and lipid peroxidation (BODIPY); format: cell-based; details: IMR-32, 50 µM APR-246 for 5 h vs solvent control (DMSO), FACS
Description: Flow Cytometry was applied to analyze the lipid peroxidation (BODIPY staining) and to detect ROS (DCFDA staining). BODIPY 581/591 C11 Lipid peroxidation sensor staining (stock concentration: 20 mM in dimethylformamide, Invitrogen, Thermo Fisher Scientific) was used at a working concentration of 20 µM, and was diluted with RPMI without phenol red (Gibco). After inspection, the cells were detached, centrifuged and stained for 20 minutes at 37°C in a 500 µl staining solution. After centrifugation, cells were resuspended in 300 µl RPMI without phenol red, supplemented with 10% FCS. Fluorescence was measured in a FACSCanto II (BD) with 488 nm excitation and detected using a 502 nm longpass and 530/30 nm bandpass filter. Data were analyzed using FlowJo 10.x.
ROS detection was performed as previously described (Oehme et al., Proc Natl Acad Sci U S A 2013, 110, E2592-2601).

[6] = system: vincristine resistant SK-N-BE(2)-C; experiment: Metabolic activity assay (CellTiter-Glo), vincristine resistant cells; format: cell-based; details: vincristine resistant vs non-resistant control SK-N-BE(2)-C; 72 h, APR-246 0 - 30 µM
Description: Vincristine resistant and non-resistant SK-N-BE(2)-C (passage 30 to 45, kindly provided by M. Michaelis, University of Kent, and J. Cinatl, Goethe University, Frankfurt am Main) were cultured using IMDM with L-Glutamine, 2mM HEPES (Gibco) supplemented with 10% FCS; for the resistant cells, 20 ng/ml vincristine was added to the medium. The cells were made to be resistant to vincristine-treatment through long-term cultivation in a vincristine containing medium.
If not otherwise declared, cells were precultured for 72 h at a density of 2,000,000 cells per T75 flask (exceptions: Kelly, NB1 and IMR-32 4,000,000 per T75 flask, SJ-GBM2 1,000,000 per T75 flask). Cells were detached with trypsin-EDTA (ThermoFisher Scientific) and seeded in 96-well plates (Greiner, Microplate, 96-Well, PS, F-bottom µCLEAR®, CELLSTAR®) in 100 µl medium per well at a density of 5,000 (KNS-42, SJ-GBM2, SF188, SK-N-BE(2)-C) or 10,000 (IMR-32, NB1, Kelly) cells/well. HDAC-inhibitor screenings were performed accordingly in 384-well plates (Greiner, Microplate, 384-Well, PS, F-bottom µCLEAR®, CELLSTAR®) in 20 µl medium per well at a density of 1,250 (SK-N-BE(2)-C, SK-N-AS) or 2,500 (IMR-32) cells/well. […] Cell viability was quantified using CellTiter-Glo® 2.0 kit (Promega, Madison, USA). […] Bioluminescence was quantified on an OPTIMA plate reader (BMG Labtech, Ortenberg, Germany).

[7] = clinical; cited from earlier work
IMR-32 = experiment: Metabolic activity assay (CellTiter-Glo); format: cell-based; details: for IC50: IMR-32
Description: (§2) If not otherwise declared, cells were precultured for 72 h at a density of 2,000,000 cells per T75 flask (exceptions: Kelly, NB1 and IMR-32 4,000,000 per T75 flask, SJ-GBM2 1,000,000 per T75 flask). Cells were detached with trypsin-EDTA (ThermoFisher Scientific) and seeded in 96-well plates (Greiner, Microplate, 96-Well, PS, F-bottom µCLEAR®, CELLSTAR®) in 100 µl medium per well at a density of 5,000 (KNS-42, SJ-GBM2, SF188, SK-N-BE(2)-C) or 10,000 (IMR-32, NB1, Kelly) cells/well. HDAC-inhibitor screenings were performed accordingly in 384-well plates (Greiner, Microplate, 384-Well, PS, F-bottom µCLEAR®, CELLSTAR®) in 20 µl medium per well at a density of 1,250 (SK-N-BE(2)-C, SK-N-AS) or 2,500 (IMR-32) cells/well. To avoid edge effects, margin wells (row A and H, column 1 and 12) contained PBS or medium and medium-containing wells were used as background controls. After 24 h incubation, cells were treated for 72 h. Drugs were applied using a Tecan D300e drug printer. Cell viability was quantified using CellTiter-Glo® 2.0 kit (Promega, Madison, USA). 50 µl CellTiter-Glo® (96-well) or 25 µl CellTiter-Glo® (384-well) were added to every well, the plates were shaken at 400 rpm for 5 min and were then incubated for another 10 min. Bioluminescence was quantified on an OPTIMA plate reader (BMG Labtech, Ortenberg, Germany).
(§3) All cell culture experiments were performed in triplicate. A two-tailed t-test, unpaired or paired, or ANOVA where appropriate, were performed using software program R (R version 3.2.2, 2015; The R Foundation for Statistical Computing). The packages tidyverse, janitor, readxl, writxl, ROCR, ggplot2 and ggsignif were used to calculate and plot the data. P-values of less than 0.05 were considered significant (^∗p < 0.05, ^∗∗p < 0.01, ^∗∗∗p < 0.001). IC50 values were calculated using GraphPad Prism Version 9.1.0 (GraphPad Software). Synergistic interactions were analyzed with SynergyFinder using the HSA (highest single agent) reference model, as the assumptions of other models were not fulfilled.

SK-N-BE(2)-C = experiment: Metabolic activity assay (CellTiter-Glo); format: cell-based; details: for IC50: SK-N-BE(2)-C
Description: as §2, §3

SK-N-AS = experiment: Metabolic activity assay (CellTiter-Glo); format: cell-based
Description: as §2, with “HDAC-inhibitor screenings were performed accordingly in 384-well plates (Greiner, Microplate, 384-Well, PS, F-bottom µCLEAR®, CELLSTAR®) in 20 µl medium per well at a density of 1,250 (SK-N-BE(2)-C, SK-N-AS) or 2,500 (IMR-32) cells/well.” left out
as §3, with “A two-tailed t-test, unpaired or paired, or ANOVA where appropriate, were performed using software program R (R version 3.2.2, 2015; The R Foundation for Statistical Computing).” left out

SF188 = experiment: Metabolic activity assay (CellTiter-Glo); format: cell-based; details: doxorubicin combined with APR-246
Description: as §2, §3

SJ-GBM2 = experiment: Metabolic activity assay (CellTiter-Glo); format: cell-based; details: doxorubicin combined with APR-246
Description: as §2, §3

[8] = Homo sapiens, HDAC inhibitor alone, 72 h, 384-well
[9] = HDAC inhibitor alone, 72 h, 384-well

Row | Compound | Maximum Tolerated Dose (MTD) (Zebrafish embryo) [µM] | IC50 (IMR-32; [8]) [nM] | IC50 (IMR-32; HDAC inhibitor + APR-246 2 µM) [nM] | IC50 (SK-N-BE(2)-C; HDAC inhibitor + APR-246 10 µM) [nM] | IC50 (SK-N-BE(2)-C; [9]) [nM] | IC50 (SK-N-AS; HDAC inhibitor + APR-246 20 µM) [nM] | IC50 (SK-N-AS; [8]) [nM] | other results
1 | COCC1(CO)C(=O)C2CCN1CC2 (stereo not drawn) [APR-246, 2-(Hydroxymethyl)-2-(methoxymethyl)-1-azabicyclo[2.2.2]octan-3-one] | 50 | – | – | – | – | – | – | estimated trough plasma concentration [1]: 15 to 20 µM; p53 target gene expression ([2]; APR-246 added to doxorubicin vs doxorubicin only): did not increase target gene expression; p53 target gene induction ([3]; APR-246 added to doxorubicin): did not improve p53 target gene induction; p53 target gene expression (CDKN1A and GADD45A) [4]: no reactivation; p53 target gene expression (CDKN1A and GADD45A) [5]: no reactivation; ROS formation and lipid peroxidation (IMR-32 cells): increased ROS formation and lipid peroxidation; APR-246 sensitivity (metabolic activity) [6]: increased APR-246 sensitivity; half-life [7]: four to five; maximum plasma concentration [7]: approximately 280 µM
2 | CN(C)Cc1c(C(=O)NCCOc2ccc(C(=O)NO)cc2)oc2ccccc12 [abexinostat, 3-[(Dimethylamino)methyl]-N-{2-[4-(hydroxycarbamoyl)phenoxy]ethyl}-1-benzofuran-2-carboxamide] | – | 100 | 30.4 | 37.5 | 172 | 15.4 | 46.3 | –
3 | COc1cccc2c1C(=O)c1c(O)c3c(c(O)c1C2=O)C[C@@](O)(C(=O)CO)C[C@@H]3O[C@H]1C[C@H](N)[C@H](O)[C@H](C)O1 [doxorubicin] | – | – | – | – | – | – | – | doxorubicin sensitivity (metabolic activity) (IMR-32; IMR-32 (TP53-wt), fixed APR-246 concentration with different doses of doxorubicin): increased doxorubicin sensitivity; cell viability (SF188): decreased cell viability; cell viability (SJ-GBM2): decreased cell viability; doxorubicin sensitivity (metabolic activity) (SK-N-BE(2)-C; doxorubicin resistant TP53-mutant SK-B-BE(2)-C, fixed APR-246 concentration with different doses of doxorubicin): increased doxorubicin sensitivity; p53 target genes CDKN1A, PUMA and GADD45A expression ([2]; doxorubicin single-treatment): upregulation; p53 target gene expression ([3]; doxorubicin single treatment): failed to activate p53 target gene expression
4 | Cc1[nH]c2ccccc2c1CCNCc1ccc(/C=C/C(=O)NO)cc1 [panobinostat, (2E)-N-hydroxy-3-[4-({[2-(2-methyl-1H-indol-3-yl)ethyl]amino}methyl)phenyl]acrylamide] | – | 35.6 | 13.9 | – | 40.2 | 1 | 2.2 | IC50 (SK-N-BE(2)-C; HDAC inhibitor + APR-246 20 µM): 3.1 nM
5 | C/C=C1\NC(=O)[C@H]2CSSCC/C=C/[C@H](CC(=O)N[C@H](C(C)C)C(=O)N2)OC(=O)[C@H](C(C)C)NC1=O [romidepsin] | – | 0.73 | – | 9.9 | 26.9 | 1.8 | 5.7 | IC50 (IMR-32; HDAC inhibitor + APR-246 1 µM): 0.24 nM
6 | O=C(CCCCCCC(=O)Nc1ccccc1)NO [vorinostat, N-Hydroxy-N'-phenyloctanediamide] | 100 | – | – | – | – | – | – | HSA synergy score (SK-N-AS; 72 h co-treatment of vorinostat (0-10 µM) with APR-246 (0, 15, 30, 45 µM), SynergyFinder HSA model): 12.17
